# Data: ChEMBL document CHEMBL5370654, “Discovery of 3-Phenyl Indazole-Based Novel Chemokine-like Receptor 1 Antagonists for the Treatment of Psoriasis” (J Med Chem, 2023)
# The source made the active and inactive calls. The rule behind the calls is not given here.
# What was measured:
# Chemerin-like receptor 1 [1] = target: T1, Chemerin-like receptor 1 (Homo sapiens, UniProt Q99788); experiment: Antagonist activity at human CMKLR1 expressed in CHO-K1 cells co-expressing Galpha-16 assessed as change in intracellular calcium concentration incubated for 30 mins in presence of chemerin-9 by FLIPR calcium 5 assay; type: functional, cell-based
# T1 sequence (Q99788 whole entry): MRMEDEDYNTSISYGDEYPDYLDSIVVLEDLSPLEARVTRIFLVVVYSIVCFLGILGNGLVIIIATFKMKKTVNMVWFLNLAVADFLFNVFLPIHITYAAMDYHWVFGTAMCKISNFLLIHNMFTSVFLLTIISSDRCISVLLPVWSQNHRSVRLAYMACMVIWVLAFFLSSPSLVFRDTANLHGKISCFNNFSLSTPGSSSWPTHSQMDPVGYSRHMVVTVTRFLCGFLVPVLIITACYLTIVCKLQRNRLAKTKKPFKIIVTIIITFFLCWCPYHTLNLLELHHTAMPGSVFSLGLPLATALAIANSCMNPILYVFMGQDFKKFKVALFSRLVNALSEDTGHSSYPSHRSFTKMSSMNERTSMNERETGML
# [2] = Cmax in C57BL6 mouse at 10 mg/kg, po measured upto 24 hrs by LC-MS/MS analysis; type: ADME, organism-based; set-up: dose 10 mg/kg, time < 24 hrs, route po; conditions: in vivo
# [3] = Tmax in C57BL6 mouse at 10 mg/kg, po measured upto 24 hrs by LC-MS/MS analysis; type: ADME, organism-based; conditions: in vivo
# [4] = AUClast in C57BL6 mouse at 10 mg/kg, po measured upto 24 hrs by LC-MS/MS analysis; type: ADME, organism-based; set-up: dose 10 mg/kg, time < 24 hrs, route po; conditions: in vivo
# Chemerin-like receptor 1 [5] = target: T1, Chemerin-like receptor 1; experiment: Antagonist activity at human CMKLR1
# [6] = Cmax in C57BL6 mouse at 30 mg/kg, po measured upto 24 hrs by LC-MS/MS analysis; type: ADME, organism-based; set-up: dose 30 mg/kg, time < 24 hrs, route po; conditions: in vivo
# [7] = Tmax in C57BL6 mouse at 30 mg/kg, po measured upto 24 hrs by LC-MS/MS analysis; type: ADME, organism-based; conditions: in vivo
# [8] = AUClast in C57BL6 mouse at 30 mg/kg, po measured upto 24 hrs by LC-MS/MS analysis; type: ADME, organism-based; set-up: dose 30 mg/kg, time < 24 hrs, route po; conditions: in vivo
# [9] = Toxicity in imiquimod-induced BALB/c mouse psoriasis model assessed as change in body weight at 30 mg/kg, po qd administered for 7 days; type: organism-based; conditions: in vivo, 168 h, time 7 day
# Mus musculus = experiment: Antiinflammatory activity against imiquimod-induced BALB/c mouse psoriasis model assessed as reduction in epidermal proliferation in mouse back skin at 0.4 mg/kg, po qd administered for 7 days by hematoxylin and eosin staining based analysis; type: functional, organism-based; conditions: time 7.0 day
# [10] = Toxicity in imiquimod-induced BALB/c mouse psoriasis model assessed as change in body weight at 0.4 mg/kg, po qd administered for 7 days; type: organism-based; conditions: in vivo, 168 h, time 7 day
smiles,measurement,setting,value
CC(CC(=O)O)c1ccc(OCc2ccc3c(-c4cc(Cl)c(O)c(Cl)c4)nn(C4CCCC4)c3c2)cc1 (racemic),IC50,Chemerin-like receptor 1 [1],309 nM
same,Cmax,[2],225 ng/mL
same,Tmax,[3],30 min
same,AUC(0-t) at 24 h,[4],823 ng·h/mL
C[C@@H](CC(=O)O)c1ccc(OCc2ccc3c(-c4ccc(O)c([N+](=O)[O-])c4)nn(C4CCCC4)c3c2)cc1,IC50,Chemerin-like receptor 1 [1],1700 nM
CC(C)n1nc(-c2ccccc2)c2ccc(COc3ccc([C@@H](C)CC(=O)O)cc3)cc21,IC50,Chemerin-like receptor 1 [5],5750 nM
Cc1ccc(-c2nn(C3CCCC3)c3cc(COc4ccc(C(C)CC(=O)O)cc4)ccc23)cc1 (racemic),IC50,Chemerin-like receptor 1 [1],2340 nM
COc1ccc(-c2nn(C3CCCC3)c3cc(COc4ccc(C(C)CC(=O)O)cc4)ccc23)cc1 (racemic),IC50,Chemerin-like receptor 1 [1],1100 nM
C[C@@H](CC(=O)O)c1ccc(OCc2ccc3c(-c4cc(Cl)c(O)c(Cl)c4)nn(C4CCCC4)c3c2)cc1,IC50,Chemerin-like receptor 1 [1],141 nM
C[C@@H](CC(=O)O)c1ccc(OCc2cc(F)c3c(-c4cc(Cl)c(CO)c(Cl)c4)nn(C4CCCC4)c3c2)cc1,Cmax,[6],7900 ng/mL
same,Tmax,[7],120 min
same,AUC(0-t) at 24 h,[8],64100 ng·h/mL
same,Activity,[9],Non-Toxic
C[C@@H](CC(=O)O)c1ccc(OCc2ccc3c(-c4cc(F)c(CO)c(F)c4)nn(C4CCCC4)c3c2)cc1,IC50,Chemerin-like receptor 1 [1],53.7 nM
C[C@@H](CC(=O)O)c1ccc(OCc2ccc3c(-c4cc(F)c(O)cc4F)nn(C4CCCC4)c3c2)cc1,IC50,Chemerin-like receptor 1 [1],513 nM
C[C@@H](CC(=O)O)c1ccc(OCc2ccc3c(-c4ccc(O)cc4Cl)nn(C4CCCC4)c3c2)cc1,IC50,Chemerin-like receptor 1 [1],676 nM
CC[C@@H](O)/C=C/C=C\C[C@@H](O)/C=C/C=C/C=C\[C@@H](O)CCCC(=O)O [RESOLVIN E1],EC50,Chemerin-like receptor 1 [5],1 nM
C[C@@H](CC(=O)O)c1ccc(OCc2ccc3c(-c4ccc(O)c(O)c4)nn(C4CCCC4)c3c2)cc1,IC50,Chemerin-like receptor 1 [1],2090 nM
CN(Cc1cnc2nc(N)nc(N)c2n1)c1ccc(C(=O)N[C@@H](CCC(=O)O)C(=O)O)cc1 [METHOTREXATE],Activity,Mus musculus,Active
same,Activity,[10],Non-Toxic
CC(CC(=O)O)c1ccc(OCc2ccc3c(-c4cccc(O)c4)nn(C4CCCC4)c3c2)cc1 (racemic),IC50,Chemerin-like receptor 1 [1],2570 nM
CC(CC(=O)O)c1ccc(OCc2ccc3c(-c4cc(Cl)c(CO)c(Cl)c4)nn(C4CCCC4)c3c2)cc1 (racemic),Cmax,[2],2600 ng/mL
same,Tmax,[3],30 min
same,AUC(0-t) at 24 h,[4],11700 ng·h/mL
CC(CC(=O)O)c1ccc(OCc2ccc3c(-c4ccc(Cl)cc4)nn(C4CCCC4)c3c2)cc1 (racemic),IC50,Chemerin-like receptor 1 [1],2290 nM
C[C@@H](CC(=O)O)c1ccc(OCc2ccc3c(-c4cc(Cl)c(O)cc4Cl)nn(C4CCCC4)c3c2)cc1,IC50,Chemerin-like receptor 1 [1],525 nM
C[C@@H](CC(=O)O)c1ccc(OCc2cc(F)c3c(-c4cc(Cl)c(O)c(Cl)c4)nn(C4CCCC4)c3c2)cc1,IC50,Chemerin-like receptor 1 [1],19.1 nM
